# From BindingDB's records for PubMed 14633714 (Abbott Laboratories, 2003)
# Target: Methionine aminopeptidase 1 (Homo sapiens, UniProt P53582)
# Assay: MetAP Enzyme Activity Assay
# Details: pH 7.4; 22 °C
# Method: A coupled enzyme chromogenic assay was developed to measure methionine aminopeptidase activity by monitoring the production of free methionine with L-amino acid oxidase and horseradish peroxidase. Assays were performed in 96-well microtiter plates. The reactions were carried out at room temperature, and absorbance at 450 nm (A450) was measured every 20 s over a period of 20 min using an automatic plate reader (Molecular Devices, CA). The rate in mOD/min, calculated for each well, was converted to nM methionine releases per minute per nM MetAP in the reaction.
row,SMILES,IC50 [µM]
1,"CCSCC[C@@H](N)[C@H](O)C(=O)NNC(=O)c1cccc(Cl)c1 [N'-[(2S,3R)-3-amino-5-(ethylsulfanyl)-2-hydroxypentanoyl]-3-chlorobenzohydrazide]",20
2,CC(C)CSC[C@@H](N)[C@H](O)C(=O)NNC(=O)c1cccc(Cl)c1,8.1
3,CC(C)CSC[C@@H](N)[C@H](O)C(=O)N[C@@H](C)c1cccc2ccccc12,2.2
4,"CCSCC[C@@H](N)[C@H](O)C(=O)N[C@@H](C)c1cccc2ccccc12 [bestatin-type inhibitor, 4]",0.37
5,"CCOC(=O)[C@H](C)NC(=O)[C@@H](O)[C@H](N)CCSC [ethyl (2S)-2-[(2S,3R)-3-amino-2-hydroxy-5-(methylsulfanyl)pentanamido]propanoate]",63
6,"CCOC(=O)[C@H](C)NC(=O)[C@@H](O)[C@H](N)CSCC(C)C [ethyl (2S)-2-[(2S,3S)-3-amino-2-hydroxy-4-[(2-methylpropyl)sulfanyl]butanamido]propanoate]",66
7,CC(C)SCC[C@@H](N)[C@H](O)C(=O)N[C@@H](C)c1cccc2ccccc12,12
8,"CCOC(=O)[C@H](C)NC(=O)[C@@H](O)[C@H](N)CCSCC [ethyl (2S)-2-[(2S,3R)-3-amino-5-(ethylsulfanyl)-2-hydroxypentanamido]propanoate]",69
9,"CC(C)SCC[C@@H](N)[C@H](O)C(=O)NNC(=O)c1cccc(Cl)c1 [N'-[(2S,3R)-3-amino-2-hydroxy-5-(propan-2-ylsulfanyl)pentanoyl]-3-chlorobenzohydrazide]",57
